# Measurements from patent US20110053900A1, “PROGESTERONE ANTAGONISTS SUCH AS CDB-4124 IN THE TREATMENT OF BREAST CANCER” (Repros Therapeutics inc, priority 2008, published 2011).
# Legend:
# rabbit uterus = assay: Anti-McGinty and anti-Clauberg assays; type: in vivo; details: average of anti-McGinty and anti-Clauberg results relative to CDB-2914 = 1.00
# Source text: Also given in the Table are the relative biological activities of the same compounds in the rabbit uterus by the anti-McGinty and anti-Clauberg assays. Compound CDB-2914 (listed at the end of the Table) was used as the control or reference compound (rabbit Biological Activity=1.00) for these experiments because results of experiments using CDB-2914 have been published before (Hild-Petito et al., 1996; Passaro et al., 1997; Reel et al., 1998; Lamer et al., 2000). For the anti-McGinty test, immature female rabbits received a subcutaneous injection of 5 μg estradiol in 10% ethanol/sesame oil daily for 6 consecutive days. On day 7, animals underwent sterile abdominal surgery to ligate a 3-4 cm segment of both uterine horns. The test compound in appropriate solvent was injected intraluminally into the ligated segment of one uterine horn and vehicle alone into the other. A stimulating dose of progesterone (267 μg/day) was administered subcutaneously to each rabbit daily for the next three days to induce endometrial proliferation. All animals were sacrificed at day 10 for removal of the uterus where a segment central to the ligatures was removed and fixed in 10% neutral buffered formalin and submitted for histological processing. Five micron sections stained with hematoxylin and cosin were evaluated microscopically for the degree of endometrial glandular proliferation. The percent inhibition of endometrial proliferation for each rabbit was calculated and the mean of the group of five animals recorded. For the Anti-Clauberg test, immature female rabbits received a subcutaneous injection of 5 μg estradiol in 10% ethanol/sesame oil daily for 6 consecutive days. On day 7, animals received progesterone by subcutaneous injection (160 μg/day) and the experimental compound in appropriate vehicle orally or subcutaneously for five consecutive days. One group of rabbits received progesterone only. Twenty-four hours after the last dose, all animals were sacrificed for removal of the uterus which was cleaned of all fat and connective tissue, weighed to the nearest 0.2 mg and placed in 10% neutral buffered formalin for subsequent histological processing. Five micron sections stained with hematoxylin and eosin were evaluated microscopically for the degree of endometrial glandular proliferation. The percent inhibition of endometrial proliferation at each dose level of the test compound was derived by comparison with progesterone-stimulated animals alone. The data presented in Table 1 (rabbit Biol. Act.) reflects the average of the results obtained for each compound by the anti-McGinty and anti-Clauberg assays relative to CDB-2914.
# [1] = biological target: T1, glucocorticoid receptor (rbGR) (Oryctolagus cuniculus, UniProt P59667); assay: Glucocorticoid receptor binding; set-up: species or system rabbit
# T1 construct: cytosol containing PR or GR were prepared in TEGMD buffer; from tissue; host or cells: thymus of estradiol-primed immature rabbits (cytosol)
# T1 sequence (P59667 1-772): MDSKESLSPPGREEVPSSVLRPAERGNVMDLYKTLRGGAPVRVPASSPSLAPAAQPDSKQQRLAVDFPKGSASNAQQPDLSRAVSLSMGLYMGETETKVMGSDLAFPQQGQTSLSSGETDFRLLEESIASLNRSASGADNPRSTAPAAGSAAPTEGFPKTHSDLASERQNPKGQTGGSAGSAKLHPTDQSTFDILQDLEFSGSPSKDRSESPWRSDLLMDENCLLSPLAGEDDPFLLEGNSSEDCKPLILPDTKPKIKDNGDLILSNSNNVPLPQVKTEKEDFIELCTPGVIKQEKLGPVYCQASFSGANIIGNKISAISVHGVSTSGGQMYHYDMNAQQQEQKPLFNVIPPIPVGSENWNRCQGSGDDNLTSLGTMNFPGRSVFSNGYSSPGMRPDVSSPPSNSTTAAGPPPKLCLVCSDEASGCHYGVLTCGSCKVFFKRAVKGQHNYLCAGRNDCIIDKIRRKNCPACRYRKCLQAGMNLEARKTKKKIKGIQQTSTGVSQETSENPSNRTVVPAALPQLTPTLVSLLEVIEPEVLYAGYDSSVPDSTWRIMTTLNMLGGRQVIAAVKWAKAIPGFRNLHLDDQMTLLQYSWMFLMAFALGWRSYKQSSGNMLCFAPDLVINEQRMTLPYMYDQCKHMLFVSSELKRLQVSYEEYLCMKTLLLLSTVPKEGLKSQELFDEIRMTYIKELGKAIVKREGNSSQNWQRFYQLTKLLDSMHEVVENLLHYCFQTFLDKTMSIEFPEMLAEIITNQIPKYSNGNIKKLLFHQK
# Protocol: Certain antiprogestins were tested in receptor-binding assays for their ability to bind rabbit progesterone receptor (rbPR) and glucocorticoid receptor (rbGR). […] For PR binding, the cytosol was incubated with 6 nM 1,2-[^3H]progesterone (50.0 Ci/mmole) and competitors were added at concentrations from 2 to 100 nM. For binding to GR, the cytosol was incubated with 6 nM 6,7-[^3H]-dexamethasone (40 Ci/mmol) and test compounds were added at concentrations from 20 to 100 nM. After overnight incubation at 4° C., bound and unbound [^3H] steroids were separated by addition of dextran-coated charcoal and centrifugation at 2100×g for 15 min at 4
# C. Supernatants containing the [3H]-steroid receptor complexes were decanted into vials containing 4 ml Optifluor (Packard Instrument Co.), vortexed, equilibrated in a liquid scintillation counter for 30 minutes and then counted for 2 minutes. […] The standards for the PR and GR assays were unlabeled progesterone and dexamethasone, respectively.
# [2] = tested on: rabbit progesterone receptor (rbPR) and glucocorticoid receptor (rbGR); assay: Receptor-binding assays, ratio of relative binding affinities rbPR/rbGR; details: RBA = EC50 of standard/EC50 of test compound x 100
# Protocol: Certain antiprogestins were tested in receptor-binding assays for their ability to bind rabbit progesterone receptor (rbPR) and glucocorticoid receptor (rbGR). Briefly, cytosol containing PR or GR were prepared in TEGMD buffer (10 mM Tris, pH 7.2, 1.5 mM EDTA, 0.2 mM sodium molybdate, 10% glycerol, 1 mM DTT) from uterus or thymus, respectively, of estradiol-primed immature rabbits. For PR binding, the cytosol was incubated with 6 nM 1,2-[^3H]progesterone (50.0 Ci/mmole) and competitors were added at concentrations from 2 to 100 nM. For binding to GR, the cytosol was incubated with 6 nM 6,7-[^3H]-dexamethasone (40 Ci/mmol) and test compounds were added at concentrations from 20 to 100 nM. After overnight incubation at 4° C., bound and unbound [^3H] steroids were separated by addition of dextran-coated charcoal and centrifugation at 2100×g for 15 min at 4
# C. Supernatants containing the [3H]-steroid receptor complexes were decanted into vials containing 4 ml Optifluor (Packard Instrument Co.), vortexed, equilibrated in a liquid scintillation counter for 30 minutes and then counted for 2 minutes. The ECso (Effective Concentration) for each standard curve and each of the compound curves was determined by entering the counting data into a four parameter sigmoidal computer program (RiaSmart® Immunoassay Data Reduction Program, Packard Instrument Co., Meriden, Conn.). Relative binding affinity (RBA) for each compound was calculated using the following equation: EC50 of standard/EC50 of test compound×100. The standards for the PR and GR assays were unlabeled progesterone and dexamethasone, respectively. The results of these experiments are summarized in Table 1, as a ratio of the relative binding affinities of each compound for the rbPR and rbGR receptors (rbPR/rbGR).
smiles,measurement,setting,value
"CC(=O)O[C@]1(C(C)=O)CC[C@H]2[C@@H]3CCC4=CC(=O)CCC4=C3[C@@H](c3ccc(N(C)C)cc3)C[C@@]21C [CDB-2914, 17α-acetoxy-11β-(4-N,N-dimethylaminophenyl)-19-norpregna-4,9-dien-3,20-dione, reference compound]",rabbit Biol. Act.,rabbit uterus,1.00
same,anti-glucocorticoid receptor activity / glucocorticoid receptor binding (in words),[1],moderately active in glucocorticoid receptor binding
same,rbPR/rbGR (ratio of the relative binding affinities for rbPR and rbGR),[2],1.07
